From patent US11022550B2, “Method for observing organisms and associated system” (Commissariat à l'énergie atomique et aux énergies …, priority 2013, dated 2021)

Tests used:
Assay type in all cases: cell-based
[1] = system: Escherichia coli ATCC 259922 (strain EC10); test: E-test minimum inhibitory concentration, sensitive strain EC10
Procedure: The sensitive strain is of the Escherichia coli species with the ATCC number of 259922. In the continuation of the description, the sensitive strain is noted as EC10. The minimum inhibitory concentration of the strain EC10 amounts to 1.0 μg/ml. In microbiology, the minimum inhibitory concentration (also noted with the acronym MIC) is the lowest concentration of antimicrobial agent which inhibits visible growth of an organism after one night of incubation. The value of 1.0 μg/ml for the minimum inhibitory concentration was obtained by conducting an E-test®. The principle of the E-test® is based on the combination of both concepts: Dilution and diffusion. The system E-test® comprises a non-porous plastic strip calibrated by a pre-established gradient of antibiotic concentration covering 15 dilutions for determining the MIC in μg/ml of a strain tested in a gelose medium.

[2] = system: Escherichia coli strain EC10; test: Microcolony growth and diffraction patterns on MH2 agar with gentamycin disc gradient, strain EC10 (first and third experiments)
From the text: The solid substrate 16 is a MH2 agar medium. Depending on the cases, the solid substrate 16 includes an antibiotic with increasing concentration when one moves away from the center of the Petri dish. For example, such a gradient is obtained by depositing a disc impregnated with 30 micrograms (μg) of antibiotics. The disc, as an illustration, is a disc with a diameter of 6.5 mm, the reference of which is 66548 in the Biorad Corporation. When the disc is deposited at the surface of the substrate 16, an antibiotic concentration gradient is established, in the substrate 16, between the disc and the periphery of the substrate 16. In each case, the sample 12 to be studied is prepared according to the following procedure. At least one cell of the strain to be studied is cultivated on a trypticase soya gelose medium (often called TSA for <<Tryptic Soy Agar>>) for at least 24 hours. A suspension of 5 milliliters (ml) comprising water and an amount of cells of the strain such that the turbidity of the solution is equal to 0.5 McF (McFarland standard), is then prepared. The obtained suspension is diluted to 1/1000th in water in a single step. In the relevant experiments, […] are poured into […]. A volume of 70 μl of the thereby obtained diluted suspension is then spread out by means of a rake on the solid MH2 agar substrate 16. Such a volume corresponds to the spreading of approximately 1,000 to 1,500 colonies on the solid substrate 16. In the case when the experiment is conducted with a solid substrate 16 comprising the antibiotic gradient, the disc is applied immediately after the spreading step. The whole of the sample 12 is then incubated for six hours at a temperature of 37° C. (Celsius). After these six hours, the observation system 10 is used for applying a method for observing the cells of the sample 12. For the first experiment, the studied organisms belong to the EC10 strain and the solid substrate 16 comprises a gentamycin gradient. A first colony of cells of the EC10 strain of the sample 12 is illuminated with the laser beam emitted by the laser source 20. The center of this colony is found at a distance of 13.5 millimeters (mm) from the center of the disc, in an area with low gentamycin concentration, since it is sufficiently far from the disc. For the third experiment, a large number of diffraction patterns is acquired (about 100) for solid substrates 16 with and without gentamycin. The studied organism is a cell from the EC10 strain.

[3] = system: Escherichia coli ATCC 35421 (strain EC21); test: E-test minimum inhibitory concentration, resistant strain EC21
From the text: The principle of the E-test® is based on the combination of both concepts: Dilution and diffusion. The system E-test® comprises a non-porous plastic strip calibrated by a pre-established gradient of antibiotic concentration covering 15 dilutions for determining the MIC in μg/ml of a strain tested in a gelose medium.
The resistant strain is of the Escherichia coli species of ATCC number 35421. In the continuation of the description, the resistant strain is noted as EC21.
This measurement was obtained by conducting an E-test®.

[4] = system: Escherichia coli strain EC21; test: Microcolony growth and diffraction patterns on MH2 agar with gentamycin disc gradient, strain EC21 (second experiment)
From the text: The solid substrate 16 is a MH2 agar medium. Depending on the cases, the solid substrate 16 includes an antibiotic with increasing concentration when one moves away from the center of the Petri dish. For example, such a gradient is obtained by depositing a disc impregnated with 30 micrograms (μg) of antibiotics. The disc, as an illustration, is a disc with a diameter of 6.5 mm, the reference of which is 66548 in the Biorad Corporation. When the disc is deposited at the surface of the substrate 16, an antibiotic concentration gradient is established, in the substrate 16, between the disc and the periphery of the substrate 16. In each case, the sample 12 to be studied is prepared according to the following procedure. At least one cell of the strain to be studied is cultivated on a trypticase soya gelose medium (often called TSA for <<Tryptic Soy Agar>>) for at least 24 hours. A suspension of 5 milliliters (ml) comprising water and an amount of cells of the strain such that the turbidity of the solution is equal to 0.5 McF (McFarland standard), is then prepared. The obtained suspension is diluted to 1/1000th in water in a single step. In the relevant experiments, […] are poured into […]. A volume of 70 μl of the thereby obtained diluted suspension is then spread out by means of a rake on the solid MH2 agar substrate 16. Such a volume corresponds to the spreading of approximately 1,000 to 1,500 colonies on the solid substrate 16. In the case when the experiment is conducted with a solid substrate 16 comprising the antibiotic gradient, the disc is applied immediately after the spreading step. The whole of the sample 12 is then incubated for six hours at a temperature of 37° C. (Celsius). After these six hours, the observation system 10 is used for applying a method for observing the cells of the sample 12. For the second experiment, the same experiment is conducted as the first experiment, by replacing the cells of the strain EC10 with cells of the strain EC21. […]

Question: What does the source list for gentamycin?
Answer: minimum inhibitory concentration (MIC) [1]: 1.0 µg/mL; maximum size of colony in direct space ([2]; 5.0 mm from center of 30 μg disc, 6 h incubation at 37° C.): about 15 μm; maximum size of colony in direct space ([2]; 8.3 mm from center of 30 μg disc, 6 h incubation at 37° C.): about 30 μm; maximum size of colony in direct space ([2]; 9.1 mm from center of 30 μg disc, 6 h incubation at 37° C.): about 50 μm; colony diameter in direct space ([2]; 13.5 mm from center of 30 μg disc, 6 h incubation at 37° C.): about 60 μm; sensitivity of organism from main component analysis of diffraction patterns ([2]; about 100 diffraction patterns, with and without gentamycin, first main component smaller at larger concentration): sensitive; minimum inhibitory concentration (MIC) [3]: greater than 256 μg/ml; maximum extension of each observed colony ([4]; 7.29, 6.63, 5.53 and 4.37 mm from center of 30 μg disc, 6 h incubation at 37° C.): ~90 μm; sensitivity of organism from comparison of diffraction patterns ([4]; diffraction patterns substantially identical at increasing gentamycin concentration): resistant; effect on growth of the organisms ([4]; gentamycin gradient on MH2 agar): no effect on the growth
